Reference: PMC9607427, “Novel 7-Chloro-(4-thioalkylquinoline) Derivatives: Synthesis and Antiproliferative Activity through Inducing Apoptosis and DNA/RNA Damage” (Pharmaceuticals, 2022)

Legend:
[1] = tested on: HCT116 (colorectal carcinoma); experiment: Cytotoxic MTS assay, HCT116; assay type: cell-based, human
Summary of the method: (§1)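 MTS, 72 h exposure, 37 °C/5% CO2; 4-fold serial dilutions added at t0; OD490 after 1–4 h MTS; IC50 = 50% growth inhibition; technical duplicates, ≥3 biological replicates.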

[2] = tested on: K562 (chronic myeloid leukemia); experiment: Cytotoxic MTS assay, K562; assay type: cell-based, human
Summary of the method: as §1

[3] = tested on: CCRF-CEM lymphoblasts; experiment: BrDU incorporation analysis (DNA synthesis); assay type: cell-based, human; conditions: 24 h, 1 × IC50 (first value of cell)
[4] = tested on: CCRF-CEM lymphoblasts; experiment: Cell cycle and apoptosis analysis (propidium iodide flow cytometry); assay type: cell-based, human; conditions: 24 h
Description: On the other hand, we wanted to find out whether compounds 48–50, 53, 54, 57, 59–63, 65–70, and 72 can stop the cell cycle of cancer cells, as it has been previously reported for chloroquine. For a more detailed description of the biological activity of the studied derivatives, we performed a cell cycle analysis of the most sensitive CCRF-CEM cells after 24 h of incubation with the novel 7-chloro-(4-thioalkylquinoline) derivatives (Table 4).
(§2) The effect of compounds on cell cycle distribution was determined to gain insights into the mechanism of its antiproliferative activity. […] For example, as compared with control, the percentage of cells in G2/M phases was increased by treatment with 5 × IC50 μM of compounds for 24 h (Table 4). […] As shown in (Table 4), there was a marked increase in the sub-G1 from 2.91 in untreated cells. 5-Bromo-2-deoxyuridine (BrDU) is incorporated into newly synthesized DNA, and 5-bromouridine (BrU) pulse labeling is therefore commonly used as a proliferation marker. Low BrDU and BrU incorporation into the DNA or RNA, respectively, of treated cells with all compounds at 5 × IC50 reflected inhibition of DNA and RNA synthesis, indicating irreversible apoptotic changes. The percentage of […] cells incorporating 5-bromouridine is proportional to the transcriptional activity of CCRF-CEM cells.
(§3) CCRF-CEM cells were seeded at a density of 1 × 10^6 cells per one mL in 6-well plates (TTP) and were cultivated with compounds at concentrations corresponding to 1 × or 5 × IC50 value. Together with the compounds-treated cells, a vehicle-treated sample was harvested at the same time point. After 24 h, the cells were washed with cold phosphate-buffered saline (PBS) and fixed in 70% ethanol added dropwise and stored overnight at −20 °C. Afterward, cells were washed in hypotonic citrate buffer, treated with RNase (50 µg mL^−1), and stained with propidium iodide. Flow cytometry using a 488 nm single beam laser (Becton Dickinson) was used for measurement. The cell cycle was analyzed by the software ModFitLT (Verity), and apoptosis was measured in a logarithmic model expressing the percentage of the particles with propidium content lower than cells in the G0/G1 phase (<G1) of the cell cycle. Half of the sample was used for pH3Ser10 antibody (Sigma) labeling and subsequent flow cytometry analysis of the cells in mitosis.

[5] = tested on: BJLD (human lung fibroblast doxorubicin-resistant); experiment: Cytotoxic MTS assay, BJLD; assay type: cell-based
Summary of the method: as §1

[6] = tested on: CCRF-CEM lymphoblasts; experiment: Mitosis, pH3Ser10 antibody labeling, flow cytometry; assay type: cell-based, human; conditions: 24 h
Description: as §2, §3

[7] = 5 × IC50 (second value of cell)

SMILES	IC50 [1]	IC50 [2]	DNA Synthesis (% positive of cells) [3]	>G2/M, % of Total Cellular Populations ([4]; 1 × IC50 (first value of cell))	G0/G1, % of Total Cellular Populations ([4]; 1 × IC50 (first value of cell))	G2/M, % of Total Cellular Populations ([4]; 1 × IC50 (first value of cell))	S, % of Total Cellular Populations ([4]; 1 × IC50 (first value of cell))	Sub-G1 Apoptosis, % of Total Cellular Populations ([4]; 1 × IC50 (first value of cell))	>G2/M, % of Total Cellular Populations [4, 7]	G0/G1, % of Total Cellular Populations [4, 7]	G2/M, % of Total Cellular Populations [4, 7]	S, % of Total Cellular Populations [4, 7]	Sub-G1 Apoptosis, % of Total Cellular Populations [4, 7]	IC50 [5]	M (Mitosis Phospho-Histone3 (Ser10)), % of Total Cellular Populations ([6]; 1 × IC50 (first value of cell))	M (Mitosis Phospho-Histone3 (Ser10)), % of Total Cellular Populations [6, 7]
COc1ccc(C(=O)OCCS(=O)(=O)c2cc[n+]([O-])c3cc(Cl)ccc23)cc1 [Compound 63, 2-[(N-Oxide 7-chloroquinolin-4-yl)sulfonyl]ethyl-4-methoxybenzoate]	16.2 µM	5.38 µM	41.06%	8.56%	42.76%	16.81%	40.42%	3.41%	11.38%	34.13%	17.88%	47.99%	12.97%	12.1 µM	1.66%	1.53%
COc1ccc(OC)c(C(=O)OCCS(=O)(=O)c2cc[n+]([O-])c3cc(Cl)ccc23)c1 [Compound 65, 2-[(N-Oxide 7-chloroquinolin-4-yl)sulfonyl]ethyl-2,5-dimethoxybenzoate]	8.83 µM	5.85 µM	36.82%	7.55%	40.82%	20.04%	39.14%	17.77%	7.13%	47.21%	19.99%	32.8%	8.67%	9.68 µM	1%	1.66%
COc1cc(OC)c(C(=O)OCCS(=O)(=O)c2cc[n+]([O-])c3cc(Cl)ccc23)cc1OC [Compound 66, 2-[(N-Oxide 7-chloroquinolin-4-yl)sulfonyl]ethyl-2,4,5-trimethoxybenzoate]	9.22 µM	5.3 µM	39.87%	10.42%	39.53%	16.6%		2.95%	10.45%	48.53%	26.56%	24.9%	11.72%	11 µM	1.64%	2.29%
COc1ccccc1C(=O)OCCS(=O)(=O)c1cc[n+]([O-])c2cc(Cl)ccc12 [Compound 68, 2-[(N-Oxide 7-chloroquinolin-4-yl)sulfonyl]ethyl-2-methoxybenzoate]	5.25 µM	4.72 µM	41.27%	9.87%	35.73%	18.54%	45.73%	2.71%	9.65%	48.5%	19.64%	31.86%	7.16%	10.1 µM	1.73%	2.11%
COc1ccc(C(=O)OCCS(=O)(=O)c2cc[n+]([O-])c3cc(Cl)ccc23)cc1[N+](=O)[O-] [Compound 69, 2-[(N-Oxide 7-chloroquinolin-4-yl)sulfonyl]ethyl-4-methoxy-3-nitrobenzoate]	13.1 µM	6.49 µM	34.45%	8.58%	43.48%	20.83%	35.7%	3.3%	12.52%	38.16%	19.27%	42.58%	13.89%	19.5 µM	1.61%	1.6%
Cc1ccc([N+](=O)[O-])c(C(=O)OCCS(=O)(=O)c2cc[n+]([O-])c3cc(Cl)ccc23)c1 [Compound 70, 2-[(N-Oxide 7-chloroquinolin-4-yl)sulfonyl]ethyl-5-methyl-2-nitrobenzoate]	11.5 µM	6.1 µM	35.58%	10.54%	39.54%	21.99%	38.46%	3.21%	10.33%	33.44%	23.25%	43.31%	13.75%	> 50 µM	1.57%	1.08%
O=C(OCCS(=O)(=O)c1cc[n+]([O-])c2cc(Cl)ccc12)c1ccc(C(F)(F)F)cc1 [Compound 72, 2-[(N-Oxide 7-chloroquinolin-4-yl)sulfonyl]ethyl-4-(trifluoromethyl)benzoate]	17.3 µM	3.02 µM	27.07%	8.35%	47.22%	18.46%	34.32%	4.05%	13.12%	31.36%	21.98%	46.65%	10.12%	27 µM	1.61%	5.28%
